Reference: patent publication US10597388B2, “Pyridazinone herbicides” (FMC CORPORATION, priority 2014, dated 2020)

Columns and labels:
Assay in all cases: Test D controlled growth environment herbicide test, pre- and postemergence
Format in all cases: in vivo
[1] = test system: barley, spring (spring barley, Hordeum vulgare)
Procedure, shortened: (§1)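 Pre-emergence: seeds sown in silt loam soil were sprayed with compound in a non-phytotoxic solvent mix containing surfactant. Post-emergence: plants at 2 to 18 cm (1- to 4-leaf stage) in peat moss/vermiculite medium got the same formulation. Visual 0–100 rating versus controls after 14 to 21 d.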

[2] = test system: barley, winter (winter barley, Hordeum vulgare)
Procedure, shortened: as §1

[3] = test system: bluegrass (annual bluegrass, Poa annua)
Procedure, shortened: as §1

[4] = test system: buckwheat, wild (wild buckwheat, Polygonum convolvulus)
Procedure, shortened: as §1

[5] = test system: canarygrass (Phalaris minor)
Procedure, shortened: as §1

[6] = test system: field poppy (Papaver rhoeas)
Procedure, shortened: as §1

[7] = test system: foxtail, green (green foxtail, Setaria viridis)
Procedure, shortened: as §1

[8] = test system: galium (catchweed bedstraw, Galium aparine)
Procedure, shortened: as §1

[9] = test system: mustard, wild (wild mustard, Sinapis arvensis)
Procedure, shortened: as §1

[10] = test system: oat, wild (wild oat, Avena fatua)
Procedure, shortened: as §1

[11] = test system: oilseed rape (Brassica napus)
Procedure, shortened: as §1

[12] = test system: pigweed (Amaranthus retroflexus)
Procedure, shortened: as §1

[13] = test system: wheat, spring (spring wheat, Triticum aestivum)
Procedure, shortened: as §1

[14] = Postemergence, 31 g ai/ha, scale 0 to 100 (0 no effect, 100 complete control)
[15] = Postemergence, 125 g ai/ha, visual rating on scale 0 (no effect) to 100 (complete control), 14 to 21 d
[16] = Postemergence, 250 g ai/ha, scale 0 to 100 (0 no effect, 100 complete control)
[17] = Preemergence, 62 g ai/ha, scale 0 to 100 (0 no effect, 100 complete control)
[18] = Preemergence, 125 g ai/ha, scale 0 to 100 (0 no effect, 100 complete control)
[19] = Preemergence, 250 g ai/ha, scale 0 to 100, 0 no effect, 100 complete control
[20] = postemergence, 62 g ai/ha, scale 0 to 100, 0 no effect, 100 complete control

Cc1nn(C)c(=O)c(-c2c(C)sc3ccc(Br)cc23)c1O [Compound 22]
Plant response rating, Barley, Spring [1, 14]: 0 | Plant response rating, Barley, Spring [1, 15]: 15 | Plant response rating, Barley, Spring [1, 16]: 15 | Plant response rating (scale of 0 to 100), Barley, Spring ([1]; Preemergence, 31 g ai/ha): 0 | Plant response rating, Barley, Spring [1, 17]: 0 | Plant response rating, Barley, Spring [1, 18]: 0 | Barley, Spring plant response rating [1, 19]: 0 | Plant response rating, Barley, Spring [1, 20]: 0 | Plant response rating, Barley, Winter [2, 14]: 0 | Plant response rating, Barley, Winter [2, 15]: 0 | Plant response rating, Barley, Winter [2, 16]: 5 | Plant response rating (scale of 0 to 100), Barley, Winter ([2]; Preemergence, 31 g ai/ha): 0 | Plant response rating, Barley, Winter [2, 17]: 0 | Plant response rating, Barley, Winter [2, 18]: 0 | Barley, Winter plant response rating [2, 19]: 0 | Plant response rating, Barley, Winter [2, 20]: 0 | Bluegrass plant response rating [3, 14]: 10 | Plant response rating, Bluegrass [3, 15]: 25 | Plant response rating, Bluegrass [3, 16]: 25 | Plant response rating (scale of 0 to 100), Bluegrass ([3]; Preemergence, 31 g ai/ha): 0 | Plant response rating, Bluegrass [3, 17]: 30 | Plant response rating, Bluegrass [3, 18]: 30 | Bluegrass plant response rating [3, 19]: 40 | Plant response rating, Bluegrass [3, 20]: 15 | Buckwheat, Wild plant response rating [4, 14]: 90 | Plant response rating, Buckwheat, Wild [4, 15]: 100 | Plant response rating, Buckwheat, Wild [4, 16]: 100 | Plant response rating (scale of 0 to 100), Buckwheat, Wild ([4]; Preemergence, 31 g ai/ha): 20 | Plant response rating, Buckwheat, Wild [4, 17]: 20 | Plant response rating, Buckwheat, Wild [4, 18]: 85 | Plant response rating, Buckwheat, Wild [4, 19]: 95 | Plant response rating, Buckwheat, Wild [4, 20]: 98 | Canarygrass plant response rating [5, 14]: 20 | Plant response rating, Canarygrass [5, 15]: 40 | Plant response rating, Canarygrass [5, 16]: 65 | Plant response rating (scale of 0 to 100), Canarygrass ([5]; Preemergence, 31 g ai/ha): 25 | Plant response rating, Canarygrass [5, 17]: 35 | Plant response rating, Canarygrass [5, 18]: 85 | Plant response rating, Canarygrass [5, 19]: 90 | Plant response rating, Canarygrass [5, 20]: 35 | Field Poppy plant response rating [6, 14]: 75 | Plant response rating, Field Poppy [6, 15]: 100 | Plant response rating, Field Poppy [6, 16]: 100 | Plant response rating (scale of 0 to 100), Field Poppy ([6]; Preemergence, 31 g ai/ha): 0 | Plant response rating, Field Poppy [6, 17]: 0 | Plant response rating, Field Poppy [6, 18]: 100 | Plant response rating, Field Poppy [6, 19]: 100 | Plant response rating, Field Poppy [6, 20]: 85 | Foxtail, Green plant response rating [7, 14]: 15 | Plant response rating, Foxtail, Green [7, 15]: 70 | Plant response rating, Foxtail, Green [7, 16]: 75 | Plant response rating (scale of 0 to 100), Foxtail, Green ([7]; Preemergence, 31 g ai/ha): 0 | Plant response rating, Foxtail, Green [7, 17]: 0 | Plant response rating, Foxtail, Green [7, 18]: 0 | Plant response rating, Foxtail, Green [7, 19]: 20 | Plant response rating, Foxtail, Green [7, 20]: 45 | Galium plant response rating [8, 14]: 90 | Plant response rating, Galium [8, 15]: 98 | Plant response rating, Galium [8, 16]: 98 | Plant response rating (scale of 0 to 100), Galium ([8]; Preemergence, 31 g ai/ha): 10 | Plant response rating, Galium [8, 17]: 65 | Plant response rating, Galium [8, 18]: 75 | Plant response rating, Galium [8, 19]: 85 | Plant response rating, Galium [8, 20]: 90 | Mustard, Wild plant response rating [9, 14]: 90 | Plant response rating, Mustard, Wild [9, 15]: 100 | Plant response rating, Mustard, Wild [9, 16]: 100 | Plant response rating (scale of 0 to 100), Mustard, Wild ([9]; Preemergence, 31 g ai/ha): 5 | Plant response rating, Mustard, Wild [9, 17]: 65 | Plant response rating, Mustard, Wild [9, 18]: 85 | Plant response rating, Mustard, Wild [9, 19]: 95 | Plant response rating, Mustard, Wild [9, 20]: 95 | Oat, Wild plant response rating [10, 14]: 65 | Plant response rating, Oat, Wild [10, 15]: 85 | Plant response rating, Oat, Wild [10, 16]: 100 | Plant response rating (scale of 0 to 100), Oat, Wild ([10]; Preemergence, 31 g ai/ha): 30 | Plant response rating, Oat, Wild [10, 17]: 55 | Plant response rating, Oat, Wild [10, 18]: 70 | Plant response rating, Oat, Wild [10, 19]: 95 | Plant response rating, Oat, Wild [10, 20]: 85 | Oilseed Rape plant response rating [11, 14]: 30 | Plant response rating, Oilseed Rape [11, 15]: 95 | Plant response rating, Oilseed Rape [11, 16]: 100 | Plant response rating (scale of 0 to 100), Oilseed Rape ([11]; Preemergence, 31 g ai/ha): 0 | Plant response rating, Oilseed Rape [11, 17]: 0 | Plant response rating, Oilseed Rape [11, 18]: 0 | Plant response rating, Oilseed Rape [11, 19]: 75 | Plant response rating, Oilseed Rape [11, 20]: 30 | Pigweed plant response rating [12, 14]: 85 | Plant response rating, Pigweed [12, 15]: 98 | Plant response rating, Pigweed [12, 16]: 100 | Plant response rating (scale of 0 to 100), Pigweed ([12]; Preemergence, 31 g ai/ha): 100 | Plant response rating, Pigweed [12, 17]: 98 | Plant response rating, Pigweed [12, 18]: 98 | Plant response rating, Pigweed [12, 19]: 100 | Plant response rating, Pigweed [12, 20]: 95 | Wheat, Spring plant response rating [13, 14]: 5 | Plant response rating, Wheat, Spring [13, 15]: 10 | Plant response rating, Wheat, Spring [13, 16]: 15 | Plant response rating (scale of 0 to 100), Wheat, Spring ([13]; Preemergence, 31 g ai/ha): 0 | Plant response rating, Wheat, Spring [13, 17]: 0 | Plant response rating, Wheat, Spring [13, 18]: 10 | Plant response rating, Wheat, Spring [13, 19]: 25 | Plant response rating, Wheat, Spring [13, 20]: 10
